According to patent US20260258006A1, “NEW ANTIBIOTIC COMPOUNDS” (UNIVERSITÉ CÔTE D'AZUR, priority 2022, published 2026):
Values after ≈ are worked out from the molar mass of the structure shown. Read-outs that look alike come from different tables or passages of the source.

How the values were obtained:
Format in all cases: cell-based
[1] = tested on: Staphylococcus aureus strain RN4220; assay: Bacterial growth inhibition screen at 50 μM; details: RN4220, 50 μM, 20 h, 37° C.
Method: (§1) The inhibition of the growth of two Staphylococcus aureus strains ([…], modified laboratory strain, non-pathogenic; and S25, pathogenic strain obtained from patients) by the presence of our compounds were used to evaluate their efficacy as bacteriostatic and/or bactericide compounds.
(§2) All compounds presented were dissolved in DMSO (10 mM stock solution) and tested initially at 50 μM concentration. The bacterial growth was measured after 5 h and 20 h incubation at 37° C. with the compounds. As positive control, the antibiotics ampicillin and kanamycin were used.

[2] = tested on: Staphylococcus aureus strain S25; assay: Bacterial growth inhibition screen at 50 μM; details: S25, 50 μM, 20 h, 37° C.
Method: as §1, §2

[3] = tested on: Staphylococcus aureus strain RN4220; assay: Minimal Inhibitory Concentration (MIC) determination; details: read-out: MIC RN4220
Method: (§3) MIC is defined as the smallest concentration of a compound that inhibits the growth of bacteria. For that, 6 doses were tested (1, 5, 12.5, 25, 50, 100 μM) for both strains incubated at 37° C., for 20 h.
(§4) Minimum inhibitory concentration (MIC, incubation for 20 h) and maximum bactericide concentration (MBC, incubation for 24 h) for S. aureus strains RN4220 and S25.
(§5) 2 Staphylococcus aureus Strains: • RN4220 (non-pathogenic) • S25 (pathogenic) • MIC: minimal inhibitory concentration • MBC: minimal bactericide concentration

[4] = tested on: Staphylococcus aureus strain S25; assay: as above; details: Bacteriostatic, 20 h, 37° C., pathogenic strain
Method: as §3, §4, §5

[5] = tested on: Staphylococcus aureus strain RN4220; assay: Minimal Bactericide Concentration (MBC) determination; details: RN4220, 24 h, read-out: MBC RN4220
Method: as §3, §4, §5

[6] = tested on: Staphylococcus aureus strain S25; assay: as above; details: 24 h in fresh media, pathogenic strain
Method: as §3, §4, §5

[7] = tested on: human embryonic kidney 293 cells (HEK293); assay: Cytotoxicity by extracellular LDH release (CyQUANT LDH Cytotoxicity Assay Kit); details: HEK293, 24 h, at their active doses (range of MIC and MBC), N=3
Method: • HEK293: 24 h in the presence of the bactericide compounds or DMSO • Method of evaluation: CyQUANT™ LDH Cytotoxicity Assay Kit.
Cytotoxicity through extracellular lactate dehydrogenase (LDH) quantification upon incubation of the compounds with HEK 293T cells at the same range of concentration as MIC and MBC. LDH: positive control, DMEM: negative control. N=3.
Preliminary safety of these compounds towards host cells was evaluated by using a extracellular lactate dehydrogenase (LDH) release model with human embryonic kidney 293 cells (HEK293).

[8] = RN4220, Bacteriostatic, 20 h, 37° C., non-pathogenic strain

Row | Compound | bacterial growth / growth inhibition (in words) [1] | bacterial growth / growth inhibition (in words) [2] | MIC [3, 8] | MIC [4] | MBC [5] | MBC [6] | cytotoxicity (extracellular LDH level versus DMSO control) [7] | MIC ([3]; RN4220, 20 h)
1 | N=C(Nc1nc2c(Cl)cccc2s1)C(Cl)(Cl)Cl [MTF235, 2,2,2-trichloro-N-(4-chlorobenzo[d]thiazol-2-yl)acetimidamide] | no growth | no growth | 25 µM (≈ 8.23 µg/mL) | 25 µM (≈ 8.23 µg/mL) | 50 µM (≈ 16.5 µg/mL) | 50 µM (≈ 16.5 µg/mL) | no cytotoxicity activity | 
2 | Cc1cccc2sc(NC(=N)C(Cl)(Cl)Cl)nc12 [MTF572, 2,2,2-trichloro-N-(4-methylbenzo[d]thiazol-2-yl)acetimidamide] | no growth | no growth |  | 40 µM (≈ 12.3 µg/mL) | 100 µM (≈ 30.9 µg/mL) |  |  | 40 µM (≈ 12.3 µg/mL)
3 | N=C(Nc1nc2c(F)cc(F)cc2s1)C(Cl)(Cl)Cl [MTF573, 2,2,2-trichloro-N-(4,6-difluorobenzo[d]thiazol-2-yl)acetimidamide] | no growth | no growth | 40 µM (≈ 13.2 µg/mL) | 50 µM (≈ 16.5 µg/mL) | 50 µM (≈ 16.5 µg/mL) | 50 µM (≈ 16.5 µg/mL) | no cytotoxicity activity | 
4 | O=C(Nc1nc2c(Cl)cc(Cl)cc2s1)C(Cl)(Cl)Cl [MTF640, N-(4,6-dichlorobenzo[d]thiazol-2-yl)trichloroacetamide] |  |  | 12.5 µM (≈ 4.56 µg/mL) | 25 µM (≈ 9.11 µg/mL) | 50 µM (≈ 18.2 µg/mL) | 50 µM (≈ 18.2 µg/mL) | no cytotoxicity activity | 
5 | N=C(Nc1nc2c(Cl)cc(Cl)cc2s1)C(Cl)(Cl)Cl [MTF642, 2,2,2-trichloro-N-(4,6-dichlorobenzo[d]thiazol-2-yl)acetimidamide] |  |  | 12.5 µM (≈ 4.54 µg/mL) | 50 µM (≈ 18.2 µg/mL) | 12.5 µM (≈ 4.54 µg/mL) | 50 µM (≈ 18.2 µg/mL) | no cytotoxicity activity | 
6 | N=C(Nc1nc2c(Br)cccc2s1)C(Br)Br [MTF643, 2,2-dibromo-N-(4-bromobenzo[d]thiazol-2-yl)acetimidamide] |  |  | 25 µM (≈ 10.7 µg/mL) | 25 µM (≈ 10.7 µg/mL) | 25 µM (≈ 10.7 µg/mL) | 50 µM (≈ 21.4 µg/mL) | no cytotoxicity activity | 
